Test results from US20240365782A1, “USE OF 2-AMINO-3-METHYLHEXANOIC ACID IN PROMOTING PLANT GROWTH AND INCREASING YIELD” (NANJING AGRICULTURAL UNIVERSITY, priority 2021, published 2024).

Key:
rice seedlings = experiment: Soaking seeds: effect on growth of rice seedlings; type: in vivo; conditions: for Chlorophyll content: rice leaves; for Chlorophyll content improved compared with the blank control / Plant height improved compared with the blank control / Root fresh weight / Root fresh weight improved compared with the blank control / Root length / Root length improved compared with the blank control / Plant height: rice seedlings; for Plant height: 3 leaves and 1 heart stage
Method: Rice seeds (variety “Dengliangyou 2108”) were washed clean with distilled water, disinfected with 75% alcohol for 3 minutes, washed with the distilled water for 3 times, and then disinfected with NaClO (5%) for about 10 minutes, taken out, and washed with the distilled water. Residual water on the surfaces of the seeds was absorbed with clean filter paper until the surfaces were dry and clean. 50 g of the healthy, full and uniform seeds were picked and placed in 100-mL conical flasks. 50 mL of a 2-amino-3-methylhexanoic acid aqueous solution with the concentrations of 0 nM, 10 nM, 100 nM and 1,000 nM was added into each bottle respectively, the seeds were soaked for 5 days at room temperature and taken out, 100 rice seeds to be tested with a consistent germination state were respectively selected, uniformly sowed in a rice seedling tray, and covered with sterile nutrient soil, the seedling tray was placed in a culture room at 28° C., and when 3 leaves and 1 heart of the rice seedlings were grown, the plant height, the root length, the root fresh weight and the overground part fresh weight of the rice seedlings were respectively measured.
(§1) 0.1 g of the rice leaves were accurately cut off for measuring the chlorophyll content. The rice leaves were extracted with 10 mL of an acetone ethanol extracting solution (80% acetone: 95% ethanol at a volume ratio of 1:1) for 24 hours in a dark place. A chlorophyll extracting stock solution was diluted by 3 times with the extracting solution as a reference solution, the light density values at wave lengths of 645 nm and 663 nm were measured with a spectrophotometer, and the chlorophyll content was calculated with a modifier formula of an Amnon method.
In the formula, Ch1a, Ch1b and Ch1t are the concentrations (mg/g·FW) of chlorophyll a, chlorophyll b and total chlorophyll, respectively; n is the dilution ratio; v is the volume of the extracting solution (L); m is the mass (g) of the leaves; and A663 and A645 are absorbance values of 663 nm and 645 nm, respectively.

strawberry seedlings = experiment: Stem and leaf treatment: growth of strawberry seedlings; type: in vivo
Method: (§2) In 2021, an experiment was conducted in a Changshanxiang Mingyang family farm (standard greenhouse nursery base) in Zhangjiagang city, Jiangsu province. A strawberry variety to be tested was Hongyan, a tomato variety was Qianxi, and a hot pepper variety was Sujiao No. 5. 2-amino-3-methylhexanoic acid was taken, dissolved with distilled water, and diluted with the distilled water to obtain a solution of 100 nM (14.5 μg/L), a blank control was additionally set, and 0.02% Tween 20 as a surfactant and 14-hydroxylated brassinosteroid (Sichuan New Sun company) with the concentration of 37.5 μg/L as a control agent were added at the same time. Each treatment was repeated three times, the plot area was 20 m^2, and the liquid injection volume per plot was 1 L. The treatment method was foliage spray, an investigation was conducted on day 9 after the application, and the results were shown in Tables 3-5 and FIG. 3-FIG. 5.

A. ureafaciens = conditions: cited from earlier work
Brevibacterium helvolum = conditions: cited from earlier work
hot pepper seedlings = experiment: Stem and leaf treatment: growth of hot pepper seedlings; type: in vivo
Method: as §2

P. fluorescens = conditions: cited from earlier work
Bacillus subtilis = conditions: cited from earlier work
E. coli B = conditions: cited from earlier work
strawberry plants = experiment: Stem and leaf treatment: growth and yield of mature strawberry plants (field application); type: in vivo; conditions: for Leaf number / Leaf width / Plant height: mature strawberry plants; for Mass of fruits per plant / Number of fruits per plant: strawberries; for Chlorophyll content: strawberry leaves
Method: as §1
On Feb. 27, 2021, an experiment was conducted in a greenhouse of a farm of Baitu town, Jurong city, Jiangsu province, and the strawberry variety to be tested was Hongyan. The 2-amino-3-methylhexanoic acid was taken, dissolved with distilled water, and gradiently diluted with the distilled water to obtain solutions of 1,000 nM and 100 nM, a blank control was additionally set, and 0.02% Tween 20 as a surfactant was added at the same time. Each treatment was repeated three times, the plot area was 100 m^2, and the liquid injection volume per plot was 4.5 L. Three times of field application were conducted on February 27, March 3, and Mar. 8, 2021, respectively. The treatment method was foliage spray. The plant height, the leaf number, the leaf width, the number of fruits per plant, and the mass of fruits per plant were investigated on March 8. 0.2 g of strawberry leaves were cut off at the same time for measuring the chlorophyll content.

Escherichia coli K-12 = conditions: cited from earlier work
tomato seedlings = experiment: Stem and leaf treatment: growth of tomato seedlings; type: in vivo
Method: as §2

[1] = foliage spray, day 9, 2-amino-3-methylhexanoic acid 100 nM, 14-hydroxylated brassinosteroid 37.5 μg/L
[2] = foliage spray, day 9, 2-amino-3-methylhexanoic acid 14.5 μg/L (100 nM), 14-hydroxylated brassinosteroid 37.5 μg/L
[3] = mature strawberry plants, 1,000 nM

## CCCC(C)C(N)C(=O)O (stereo not drawn) [2-amino-3-methylhexanoic acid]
Rice seedlings; seed soaking 10 nM
  Chlorophyll content: 3.60 ± 0.055b mg/g · FW
  Chlorophyll content improved compared with the blank control: 31%
  Plant height improved compared with the blank control: 9%
  Root fresh weight: 0.039 ± 0.002c g
  Root fresh weight improved compared with the blank control: 18%
  Root length: 8.34 ± 0.53b cm
  Root length improved compared with the blank control: 14%
  Plant height: 25.24 ± 0.82b cm
Rice seedlings; seed soaking 100 nM
  Chlorophyll content: 3.82 ± 0.079a mg/g · FW
  Chlorophyll content improved compared with the blank control: 39%
  Plant height improved compared with the blank control: 29%
  Root fresh weight: 0.069 ± 0.007a g
  Root fresh weight improved compared with the blank control: 109%
  Root length: 9.30 ± 0.26a cm
  Root length improved compared with the blank control: 27%
  Plant height: 29.88 ± 0.16a cm
Rice seedlings; seed soaking 1,000 nM
  Chlorophyll content: 3.63 ± 0.013b mg/g · FW
  Chlorophyll content improved compared with the blank control: 32%
  Plant height improved compared with the blank control: 13%
  Root fresh weight: 0.052 ± 0.003b g
  Root fresh weight improved compared with the blank control: 58%
  Root length: 8.30 ± 0.17b cm
  Root length improved compared with the blank control: 14%
  Plant height: 26.20 ± 0.32b cm
Strawberry seedlings; 14.5 μg/L
  Plant height improved compared with 14-hydroxylated brassinosteroid 37.5 μg/L: 7%
  Plant height improved compared with the blank control: 31%
  Root fresh weight improved compared with 14-hydroxylated brassinosteroid 37.5 μg/L: 65%
  Root fresh weight improved compared with the blank control: 70%
  Root length improved compared with 14-hydroxylated brassinosteroid 37.5 μg/L: 24%
  Root length improved compared with the blank control: 23%
Strawberry seedlings; [1]
  Plant height: 7.00 ± 0.37a cm
  Root fresh weight: 8.49 ± 0.12a g
  Root length: 5.79 ± 0.36a cm
A. ureafaciens
  Inhibitory effect: slight inhibitory effect
Brevibacterium helvolum
  Inhibitory effect: no inhibitory effect
Hot pepper seedlings; 14.5 μg/L
  Plant height improved compared with 14-hydroxylated brassinosteroid 37.5 μg/L: 37%
  Plant height improved compared with the blank control: 60%
  Root fresh weight improved compared with 14-hydroxylated brassinosteroid 37.5 μg/L: 35%
  Root fresh weight improved compared with the blank control: 49%
  Root length improved compared with 14-hydroxylated brassinosteroid 37.5 μg/L: 7%
  Root length improved compared with the blank control: 46%
Hot pepper seedlings; [2]
  Plant height: 9.32 ± 0.32a cm
  Root fresh weight: 4.67 ± 0.09a g
  Root length: 4.53 ± 0.33a cm
P. fluorescens
  Inhibitory effect: no inhibitory effect
Bacillus subtilis
  Inhibitory effect: remarkable inhibitory effect
E. coli B
  Inhibitory effect: slight inhibitory effect
Strawberry plants; [3]
  Chlorophyll content improved compared with the blank control: 21%
  Leaf number improved compared with the blank control: 79%
  Leaf width improved compared with the blank control: 32%
  Plant height improved compared with the blank control: 49%
Strawberry plants; foliage spray 100 nM
  Leaf number: 22.44 ± 4.32b leaf
  Leaf width: 5.33 ± 0.48b cm
  Plant height: 26.50 ± 3.60b cm
  Mass of fruits per plant: 29.06 ± 0.76b g
  Number of fruits per plant: 8.32 ± 0.47b fruit
  Chlorophyll content: 3.50 ± 0.30ab mg/g · FW
Strawberry plants; foliage spray 1,000 nM
  Leaf number: 26.00 ± 4.76a leaf
  Leaf width: 6.59 ± 1.07a cm
  Plant height: 36.60 ± 3.28a cm
  Mass of fruits per plant: 34.47 ± 0.58a g
  Number of fruits per plant: 9.72 ± 0.43a fruit
  Chlorophyll content: 3.74 ± 0.65a mg/g · FW
Strawberry plants; strawberry plants, 1,000 nM
  Mass of fruits per plant improved compared to the blank control: 44%
  Number of fruits per plant improved compared to the blank control: 39%
Escherichia coli K-12
  Inhibitory effect: remarkable inhibitory effect
Tomato seedlings; 14.5 μg/L
  Plant height improved compared with 14-hydroxylated brassinosteroid 37.5 μg/L: 76%
  Plant height improved compared with the blank control: 84%
  Root fresh weight improved compared with 14-hydroxylated brassinosteroid 37.5 μg/L: 16%
  Root fresh weight improved compared with the blank control: 232%
  Root length improved compared with 14-hydroxylated brassinosteroid 37.5 μg/L: 18%
  Root length improved compared with the blank control: 38%
Tomato seedlings; [2]
  Plant height: 20.80 ± 0.21a cm
  Root fresh weight: 4.05 ± 0.07a g
  Root length: 5.39 ± 0.43a cm
